Measured values: US8822509B2, “Pain-relieving compositions and uses therefor” (priority 2006, dated 2014)
Values joined by “and” are separate entries in the source; they are usually repeats but may differ in a detail not shown here. Equal values may be shown once. “Also recorded” adds a separate entry of the source.

Experiments:
[1] = biological target: T1, μ-opioid receptors (MOP receptors) (Mus musculus, UniProt P42866); type: cell-based
T1 construct: expressed in transfected cells; host or cells: HEK293

[2] = system: tactile allodynia in 14-18 week STZ-diabetic rats; experiment: Naloxone or ODQ pre-treatment before test article in 14-18 week STZ-diabetic rats, von Frey PWT; type: in vivo, Wistar rats
[3] = In vitro NO release (Total NOx, modified Griess reagent assay)
Description: Briefly, HEK-MOP cells were seeded at 1×10^5 cells/mL and grown in 10 cm plates to 90% confluence. Four hours prior to experimentation, cell medium was replaced with phenol red-free DMEM. […] Following removal of each supernatant sample, it was replaced with 500 μL of phenol red-free DMEM. Samples were immediately placed on ice until NOx concentrations were quantified.
Sample aliquots (100 μL) were added to 96-well plates in duplicates. Nitrate was first converted to nitrite to determine total NOx concentrations with the addition of 100 μL aliquots of vanadium (III) chloride in 1M HCl (800 mg/100 mL) per well, followed by 100 μL aliquots of modified Griess reagent which converted nitrite to a deep purple azo derivative for spectrophotometric quantification at 560 nm using an Envision Multilabel Plate Reader (PerkinElmer Life Sciences). […] Total NOx and nitrite concentration was determined through inverse prediction against the nitrite standard curve.

[4] = system: cGMP formation in HEK-MOP cells; experiment: cGMP levels in MOP-transfected HEK cells (AlphaScreen); type: cell-based
Description: For assessment of cGMP levels in MOP-transfected HEK cells, the methods used were similar to those described in Example 6 with the exception that forskolin was omitted from the incubations. cGMP levels were quantified using AlphaScreen detection kits according to the manufacturer's instructions. Briefly, 5 μL aliquots of the cell suspension were added to individual wells containing 5 μL aliquots of test or control article solutions at the concentration of interest in triplicates in 384-well plates and incubated for 30 min at 37° C. cGMP standard solutions were serially diluted in stimulation buffer to give concentrations in the range of 5×10^−10-5×10^−6 M and were added at 10 μL/well. After cells were lysed with lysis buffer, 5 μL aliquots of acceptor bead mix (10 μl/mL of acceptor beads and 1/3000 anti-cGMP antibody for cGMP detection in lysis buffer) were added to each well. After plates were incubated in the dark at room temperature for 60 min, 5 μL aliquots of donor bead mix (10 μL/mL of donor beads and 0.3 nM biotinylated cGMP in lysis buffer) were added per well and plates were incubated for 16 h in the dark at room temperature. […] was measured using an Envision Multilabel Plate Reader (PerkinElmer Life Sciences).

[5] = biological target: κ-opioid receptors (KOP receptors) (Mus musculus, UniProt P33534); experiment: Forskolin-stimulated cAMP responses in KOP-transfected HEK293 cells; conditions: KOP-transfected HEK293, entire concentration range tested
Description: (§4) Non-transfected HEK293 cells were used as a control. Transfected HEK293 cells were maintained in Dulbecco's Modified Eagle's Medium (DMEM) supplemented with 10% fetal bovine serum (FBS) and geneticin (1 mg/mL). Non-transfected HEK293 cells were maintained in DMEM supplemented with 10% FBS.
(§5) The functional interaction between opioids and opioid-like compounds and specific opioid G-protein-coupled receptors (GPCRs) was assessed by measuring changes in intracellular cAMP levels relative to basal levels. The Alphascreen cAMP functional assay measures agonist and antagonist activity of GPCRs by stimulating cells to either increase or decrease intracellular cAMP levels. The assay was performed using an Alphascreen cAMP kit according to the manufacturer's instructions. […]
(§6) Detection of cAMP is based on the competition between intracellular cAMP and biotinylated cAMP linked streptavidin-coated donor beads for anti-cAMP conjugated acceptor beads. When the donor and acceptor beads are in close proximity visible light emitted at 520-620 nm is detected using the Envision multilabel plate reader. […]
(§7) The assay performance was optimized by using cells at low passage number and at 70-90% confluence. […] The cell concentration was determined using a haemocytometer. […] Note that the cell number will influence the cAMP levels measured before (basal) and after adenylyl cyclase activation. […]

[6] = system: systolic blood pressure of normotensive non-diabetic Wistar rats; experiment: Systolic blood pressure (tail cuff) in normotensive rats; type: in vivo
Description: Sedation was induced by the intraperitoneal administration of Zoletil® (tiletamine 15 mg kg^−1 and zolazepam 15 mg kg^−1). Using a tail pulse transducer (MLT1010) and an inflatable tail cuff with a Capto SP844 physiological pressure transducer (MLT844/D), systolic blood pressure was recorded via a PowerLab data acquisition unit (ADInstruments, Sydney, Australia). Tails were warmed with lukewarm water prior to each blood pressure reading to increase peripheral circulation so as to facilitate blood pressure recordings using the tail cuff method.
This study was designed to assess the effects of single s.c. bolus doses of the furoxan NO donor, Compound 1, relative to vehicle (DMSO:water, 90:10) on systolic blood pressure in normotensive, non-diabetic, adult male Wistar rats. Single bolus doses of Compound 1 were administered by s.c. injection into the back of the neck of adult male normotensive, non-diabetic Wistar rats in the dose range, 80 fmol/kg to 80 lμmol/kg. Specifically, the doses of Compound 1 tested were 80 fmol/kg (n=3), 800 pmol/kg (n=8), 8 nmol/kg (n=6), 800 nmol/kg (n=4), 8 μmol/kg (n=4), 80 μmol/kg (n=3).

[7] = system: hindpaws of control non-diabetic rats; experiment: Antinociception by von Frey PWT in control non-diabetic rats; type: in vivo, Wistar rats; conditions: single s.c. bolus; morphine 1.8-21.4 μmol/kg, Compound 1 2-20 fmol/kg
Description: (§1) Briefly, baseline PWTs were determined for both hindpaws prior to each antinociceptive testing session in the non-diabetic control group at week 0 as well as in groups of STZ-diabetic rats at 10, 14 and 24 wks.
(§2) The PWT vs time data were normalized by subtracting the pre-dosing baseline PWT values for each individual rat to obtain ΔPWT values as follows: Normalized (Δ)PWT value=Post-treatment PWT value−PWT value prior to treatment.
(§3) ΔPWT versus time curves were then constructed. Trapezoidal integration was used to estimate ΔPWT AUC values for individual rats in the non-diabetic and STZ-diabetic rat treatment groups. ΔPWT AUC versus dose curves were constructed and GraphPad™ Prism was used to estimate the ˜ED50 values.

[8] = system: tactile (mechanical) allodynia in hindpaws of STZ-diabetic rats; experiment: Anti-allodynia by von Frey paw withdrawal thresholds (PWT) in STZ-diabetic rats; type: in vivo, Wistar rats
Description: Following this, the jugular cannula was withdrawn, the vein tied off, and the incision sutured. Following surgery, rats received antibiotic prophylaxis in the form of topical dusting powder over the sutured incisions, as well as a subcutaneous injection of benzylpenicillin (60 mg). Rats were placed in individual cages, kept warm and monitored closely during the surgical recovery period. Rats were classified as diabetic if on day 10 post-STZ administration, their daily water intake was ≧100 mL and their corresponding blood glucose levels (BGLs) were ≧15 mM.
Calibrated von Frey filaments were used to document the time course for the development and maintenance of tactile allodynia (defining symptom of PDN).
as §1, §2, §3

[9] = system: non-transfected HEK293 cells; experiment: Forskolin-stimulated cAMP responses in non-transfected HEK293 cells; conditions: non-transfected HEK293, entire concentration range tested
Description: as §4, §5, §6, §7

[10] = 10 wks post-STZ, Compound 1 s.c. (FIG. 3B)
[11] = 14 and 24 wks post-STZ, Compound 1 80 and 800 pmol/kg s.c.

T1 sequence (P42866 whole entry): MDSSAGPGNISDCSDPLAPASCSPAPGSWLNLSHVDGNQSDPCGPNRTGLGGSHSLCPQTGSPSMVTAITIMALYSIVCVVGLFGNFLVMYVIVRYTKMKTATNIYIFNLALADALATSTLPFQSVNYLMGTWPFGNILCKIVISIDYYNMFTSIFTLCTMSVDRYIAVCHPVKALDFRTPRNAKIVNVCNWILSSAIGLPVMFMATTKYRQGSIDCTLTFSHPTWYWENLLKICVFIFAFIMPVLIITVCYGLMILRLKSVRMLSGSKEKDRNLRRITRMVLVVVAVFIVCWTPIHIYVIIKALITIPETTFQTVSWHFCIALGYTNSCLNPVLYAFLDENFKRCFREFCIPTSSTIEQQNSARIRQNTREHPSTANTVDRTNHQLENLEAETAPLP
κ-opioid receptors (KOP receptors), sequence (P33534 whole entry): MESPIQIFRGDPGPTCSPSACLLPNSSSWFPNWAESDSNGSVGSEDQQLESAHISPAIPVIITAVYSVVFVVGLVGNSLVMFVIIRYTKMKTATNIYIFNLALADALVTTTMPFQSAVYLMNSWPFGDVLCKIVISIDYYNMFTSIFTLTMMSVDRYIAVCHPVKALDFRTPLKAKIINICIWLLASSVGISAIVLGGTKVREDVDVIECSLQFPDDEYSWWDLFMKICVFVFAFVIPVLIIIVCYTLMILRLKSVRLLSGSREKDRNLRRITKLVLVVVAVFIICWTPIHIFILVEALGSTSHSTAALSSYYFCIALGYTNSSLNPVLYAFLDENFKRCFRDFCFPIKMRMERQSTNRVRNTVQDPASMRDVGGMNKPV

Cc1c(C=O)no[n+]1[O-] [Compound 1, 4-formyl-3-methyl-1,2,5-oxadiazole-2-oxide]
effect of naloxone pre-incubation on inhibition of forskolin-stimulated cAMP formation [1]: not by naloxone
inhibition of forskolin-stimulated cAMP formation ([1]; MOP-transfected HEK293, mM, pM and aM concentrations): inhibited forskolin-stimulated cAMP formation
effect of ODQ pre-incubation on modulation of forskolin-stimulated cAMP formation ([1]; ODQ 10 μM): did not significantly attenuate
effect of pertussis toxin pre-incubation on inhibition of forskolin-stimulated cAMP formation ([1]; PTX 100 ng/mL 16 h, Compound 1 1 aM, morphine 1 μM): abolished by pre-incubation with pertussis toxin
effect of ODQ pre-treatment on anti-allodynia ([2]; ODQ 53.4 μmol/kg s.c. 60 min before Compound 1 800 pmol/kg s.c.): significantly attenuated from 45 minutes onwards; also recorded: partially sensitive
effect of naloxone pre-treatment on anti-allodynia (ΔPWT AUC) ([2]; naloxone 1.25 μmol/kg s.c. 10 min before Compound 1 800 pmol/kg or morphine 7 μmol/kg s.c.): did not significantly attenuate; also recorded: naloxone insensitive
Release of NO (Total NOx %) ([3]; Compound 1, 1 mM + L-Cysteine 5 mM, 6-h (b277 prints 50 mM)): 2.7±0.3% and 2.7 + 0.3%
Release of NO (Total NOx %) ([3]; Compound 1, 1 mM, 6-h study period): 1.8% and 1.8±0.3%
1 Hour Total NOx ([3]; NOx analysis at 1 hour, assay of Example 9): 2.08 µM and 2.19 µM
6 Hours Total NOx ([3]; NOx analysis at 6 hours, assay of Example 9): 2.52 µM
cGMP Activity (% of basal cGMP response) ([4]; Compound 1, 1 mM): 159 + 20%
cGMP Activity (% of basal cGMP response) ([4]; Compound 1, 1 mM + L-Cysteine 5 mM): 185 + 34%
fold increase in cGMP activity with L-cysteine ([4]; Compound 1, 1 mM + L-Cysteine 5 mM vs alone): (1.2 fold increase)
stimulation of cGMP formation ([4]; HEK-MOP cells, presence and absence of L-cysteine (5 mM)): comparatively weak stimulation of cGMP formation
inhibition of forskolin-stimulated cAMP formation [5]: did not appear to inhibit
effect on systolic blood pressure ([6]; 80 μmol/kg s.c., 30 min post-dosing vs pre-dosing baseline): decreased significantly; also recorded: significantly reduced systolic blood pressure
mean (±SEM) systolic blood pressure at time of peak effect ([6]; 80 μmol/kg s.c., 30 min post-dosing, pre-dose 111.3 (±1.5)): 79.8 (±0.5) mm Hg
mean systolic blood pressure ([6]; 80 μmol/kg s.c., 1 h post-dosing): 112.6±0.4 mm Hg
effect on systolic blood pressure ([6]; single s.c. bolus 80 fmol/kg to 8 μmol/kg, up to 1 h): no significant effects
antinociception in the hindpaws of control non-diabetic rats [7]: dose-dependent antinociception
relief of mechanical allodynia at time of peak effect ([8]; 10 wks post-STZ, Compound 1 8 fmol/kg s.c.): complete relief of mechanical allodynia
mean duration of action [8, 10]: > 3 h
peak anti-allodynic response (PWT) [8, 10]: 10.6 ± 0.5 g
time of peak anti-allodynic response post-dosing [8, 10]: ~75 min
alleviation of mechanical allodynia at time of peak response [8, 11]: fully alleviated
duration of action [8, 11]: ≥ 3 h
anti-allodynic effect of doses used at week 10 ([8]; 14 weeks post-STZ, Compound 1 fmol/kg doses): no longer effective
anti-allodynia in the hindpaws of STZ-diabetic rats ([8]; single s.c. bolus at 10, 14, 24 wks post-STZ): dose-dependent anti-allodynia/antinociception
inhibition of forskolin-stimulated cAMP formation [9]: did not appear to inhibit
